Consider two compounds from ChEMBL document CHEMBL5303573, “Mapping human microbiome drug metabolism by gut bacteria and their genes” (Nature, 2019).

The structures appear in SMILES notation.

The first data set in a line: The drug is tested on Edwardsiella tarda strain: ATCC23685 for biotransformation. The drug concentrations were measured before and after a 12-h incubation by liquid-chromatography-coupled mass spectrometry (LC–MS). Particulars: 2 µM.
Regarding `CN1CCN2c3ccccc3Cc3ccccc3C2C1` (stereo not drawn) [MIANSERIN], the “Bacterial Biotransformation” value is recorded as “Compound NOT metabolized”.
Still for that read-out and setting: the entry for `COc1ccc([C@@H]2Sc3ccccc3N(CCN(C)C)C(=O)[C@@H]2OC(C)=O)cc1` [DILTIAZEM] is “Compound NOT metabolized”.

The next data set in a line: The drug is tested on Parabacteroides merdae strain: ATCC43184 for biotransformation. The drug concentrations were measured before and after a 12-h incubation by liquid-chromatography-coupled mass spectrometry (LC–MS). The note with it: 2 µM.
`CN1CCN2c3ccccc3Cc3ccccc3C2C1` (stereo not drawn) [MIANSERIN]: the “Bacterial Biotransformation” value is given as “Compound NOT metabolized”.
Same read-out and setting: next, `COc1ccc([C@@H]2Sc3ccccc3N(CCN(C)C)C(=O)[C@@H]2OC(C)=O)cc1` [DILTIAZEM]: “Compound metabolized”.

A further data set can be described thus: The drug is tested on Coprococcus comes strain: ATCC27758 for biotransformation. The drug concentrations were measured before and after a 12-h incubation by liquid-chromatography-coupled mass spectrometry (LC–MS). The note with it: 2 µM. The arrangement: dose 2 uM, timepoint 0 vs 12 hours. The format is ADME.
Consider `CN1CCN2c3ccccc3Cc3ccccc3C2C1` (stereo not drawn) [MIANSERIN], for which the “Bacterial Biotransformation” value is reported as “Compound NOT metabolized”.
Turning to `COc1ccc([C@@H]2Sc3ccccc3N(CCN(C)C)C(=O)[C@@H]2OC(C)=O)cc1` [DILTIAZEM], the “Bacterial Biotransformation” value is “Compound metabolized”.

The nature of another data set: The drug is tested on Bacteroides ovatus strain: ATCC8483 for biotransformation. The drug concentrations were measured before and after a 12-h incubation by liquid-chromatography-coupled mass spectrometry (LC–MS). The note with it: 2 µM.
Regarding `CN1CCN2c3ccccc3Cc3ccccc3C2C1` (stereo not drawn) [MIANSERIN], the “Bacterial Biotransformation” value is on record as “Compound NOT metabolized”.
The same measure, in the same setting: next, `COc1ccc([C@@H]2Sc3ccccc3N(CCN(C)C)C(=O)[C@@H]2OC(C)=O)cc1` [DILTIAZEM]: “Compound metabolized”.

The next data set can be described thus: The drug is tested on Clostridium symbiosum strain: ATCC14940 for biotransformation. The drug concentrations were measured before and after a 12-h incubation by liquid-chromatography-coupled mass spectrometry (LC–MS). The note with it: 2 µM.
For `CN1CCN2c3ccccc3Cc3ccccc3C2C1` (stereo not drawn) [MIANSERIN], the “Bacterial Biotransformation” value is “Compound NOT metabolized”.
For the compound `COc1ccc([C@@H]2Sc3ccccc3N(CCN(C)C)C(=O)[C@@H]2OC(C)=O)cc1` [DILTIAZEM], the “Bacterial Biotransformation” value is reported as “Compound metabolized”.

A short description of a further data set: The drug is tested on Bacteroides coprophilus strain: DSM18228 for biotransformation. The drug concentrations were measured before and after a 12-h incubation by liquid-chromatography-coupled mass spectrometry (LC–MS). The note with it: 2 µM.
As to `CN1CCN2c3ccccc3Cc3ccccc3C2C1` (stereo not drawn) [MIANSERIN], the “Bacterial Biotransformation” value is given as “Compound NOT metabolized”.
On the same count and under the same terms, the entry for `COc1ccc([C@@H]2Sc3ccccc3N(CCN(C)C)C(=O)[C@@H]2OC(C)=O)cc1` [DILTIAZEM] is “Compound metabolized”.

The next data set can be described thus: The drug is tested on Bacteroides pectinophilus strain: ATCC43243 for biotransformation. The drug concentrations were measured before and after a 12-h incubation by liquid-chromatography-coupled mass spectrometry (LC–MS). Particulars: 2 µM.
Consider `CN1CCN2c3ccccc3Cc3ccccc3C2C1` (stereo not drawn) [MIANSERIN], for which the “Bacterial Biotransformation” value is “Compound NOT metabolized”.
On the same count and under the same terms, the entry for `COc1ccc([C@@H]2Sc3ccccc3N(CCN(C)C)C(=O)[C@@H]2OC(C)=O)cc1` [DILTIAZEM] is “Compound NOT metabolized”.

Another data set is described as follows: The drug is tested on Ruminococcus torques strain: ATCC27756 for biotransformation. The drug concentrations were measured before and after a 12-h incubation by liquid-chromatography-coupled mass spectrometry (LC–MS). In kind it is ADME. The arrangement: dose 2 uM, timepoint 0 vs 12 hours. Particulars: 2 µM.
For `CN1CCN2c3ccccc3Cc3ccccc3C2C1` (stereo not drawn) [MIANSERIN], the “Bacterial Biotransformation” value was “Compound NOT metabolized”.
Consider `COc1ccc([C@@H]2Sc3ccccc3N(CCN(C)C)C(=O)[C@@H]2OC(C)=O)cc1` [DILTIAZEM], for which the “Bacterial Biotransformation” value is on record as “Compound metabolized”.

The conditions of another data set: enterocloster bolteae, 12 h, 2 µM.
Description: The drug is tested on Clostridium bolteae strain: ATCCBAA-613 for biotransformation. The drug concentrations were measured before and after a 12-h incubation by liquid-chromatography-coupled mass spectrometry (LC–MS)
For `CN1CCN2c3ccccc3Cc3ccccc3C2C1` (stereo not drawn) [MIANSERIN], the “Bacterial Biotransformation” value was “Compound NOT metabolized”.
Still for that read-out and setting: the entry for `COc1ccc([C@@H]2Sc3ccccc3N(CCN(C)C)C(=O)[C@@H]2OC(C)=O)cc1` [DILTIAZEM] is “Compound NOT metabolized”.

The nature of a further data set: The drug is tested on Dorea formicigenerans strain: ATCC27755 for biotransformation. The drug concentrations were measured before and after a 12-h incubation by liquid-chromatography-coupled mass spectrometry (LC–MS). The note with it: 2 µM.
`CN1CCN2c3ccccc3Cc3ccccc3C2C1` (stereo not drawn) [MIANSERIN]: the “Bacterial Biotransformation” value is listed as “Compound NOT metabolized”.
Still for that read-out and setting: the entry for `COc1ccc([C@@H]2Sc3ccccc3N(CCN(C)C)C(=O)[C@@H]2OC(C)=O)cc1` [DILTIAZEM] is “Compound metabolized”.

A further data set is described as follows: The drug is tested on Bacteroides fragilis strain: HMW610 for biotransformation. The drug concentrations were measured before and after a 12-h incubation by liquid-chromatography-coupled mass spectrometry (LC–MS). The note with it: 2 µM.
Consider `CN1CCN2c3ccccc3Cc3ccccc3C2C1` (stereo not drawn) [MIANSERIN], for which the “Bacterial Biotransformation” value was “Compound NOT metabolized”.
On the same count and under the same terms, the entry for `COc1ccc([C@@H]2Sc3ccccc3N(CCN(C)C)C(=O)[C@@H]2OC(C)=O)cc1` [DILTIAZEM] is “Compound NOT metabolized”.

The conditions of the next data set: bacteroides stercoris, 12 h, 2 µM.
Description: The drug is tested on Bacteroides stercoris strain: ATCC43183 for biotransformation. The drug concentrations were measured before and after a 12-h incubation by liquid-chromatography-coupled mass spectrometry (LC–MS)
In the case of `CN1CCN2c3ccccc3Cc3ccccc3C2C1` (stereo not drawn) [MIANSERIN], the “Bacterial Biotransformation” value was “Compound NOT metabolized”.

The nature of another data set: The drug is tested on Eubacterium rectale strain: ATCC33656 for biotransformation. The drug concentrations were measured before and after a 12-h incubation by liquid-chromatography-coupled mass spectrometry (LC–MS). The note with it: agathobacter rectalis, 2 µM.
`CN1CCN2c3ccccc3Cc3ccccc3C2C1` (stereo not drawn) [MIANSERIN]: the “Bacterial Biotransformation” value is reported as “Compound NOT metabolized”.
As for `COc1ccc([C@@H]2Sc3ccccc3N(CCN(C)C)C(=O)[C@@H]2OC(C)=O)cc1` [DILTIAZEM], the “Bacterial Biotransformation” value is recorded as “Compound NOT metabolized”.

The next data set is described as follows: The drug is tested on Clostridium asparagiforme strain: DSM15981 for biotransformation. The drug concentrations were measured before and after a 12-h incubation by liquid-chromatography-coupled mass spectrometry (LC–MS). The format is ADME. Also on record: dose 2 uM, timepoint 0 vs 12 hours. The note with it: enterocloster asparagiformis, 2 µM.
`CN1CCN2c3ccccc3Cc3ccccc3C2C1` (stereo not drawn) [MIANSERIN]: the “Bacterial Biotransformation” value is on record as “Compound NOT metabolized”.
The same measure, in the same setting: the entry for `COc1ccc([C@@H]2Sc3ccccc3N(CCN(C)C)C(=O)[C@@H]2OC(C)=O)cc1` [DILTIAZEM] is “Compound NOT metabolized”.

Another data set in a line: The drug is tested on Bacteroides fragilis strain: ATCC43859 for biotransformation. The drug concentrations were measured before and after a 12-h incubation by liquid-chromatography-coupled mass spectrometry (LC–MS). Particulars: 2 µM.
Turning to `COc1ccc([C@@H]2Sc3ccccc3N(CCN(C)C)C(=O)[C@@H]2OC(C)=O)cc1` [DILTIAZEM], the “Bacterial Biotransformation” value is given as “Compound NOT metabolized”.

A short description of the next data set: The drug is tested on Alistipes indistinctus strain: DSM22520 for biotransformation. The drug concentrations were measured before and after a 12-h incubation by liquid-chromatography-coupled mass spectrometry (LC–MS). The note with it: 2 µM.
For `COc1ccc([C@@H]2Sc3ccccc3N(CCN(C)C)C(=O)[C@@H]2OC(C)=O)cc1` [DILTIAZEM], the “Bacterial Biotransformation” value is on record as “Compound metabolized”.

Another data set is described as follows: The drug is tested on Blautia luti strain: DSM14534 for biotransformation. The drug concentrations were measured before and after a 12-h incubation by liquid-chromatography-coupled mass spectrometry (LC–MS). In kind it is ADME. Also on record: dose 2 uM, timepoint 0 vs 12 hours. Particulars: 2 µM.
As for `CN1CCN2c3ccccc3Cc3ccccc3C2C1` (stereo not drawn) [MIANSERIN], the “Bacterial Biotransformation” value is listed as “Compound NOT metabolized”.
On the same count and under the same terms, the entry for `COc1ccc([C@@H]2Sc3ccccc3N(CCN(C)C)C(=O)[C@@H]2OC(C)=O)cc1` [DILTIAZEM] is “Compound NOT metabolized”.

A further data set can be described thus: The drug is tested on Collinsella intestinalis strain: DSM13280 for biotransformation. The drug concentrations were measured before and after a 12-h incubation by liquid-chromatography-coupled mass spectrometry (LC–MS). Particulars: 2 µM.
Consider `CN1CCN2c3ccccc3Cc3ccccc3C2C1` (stereo not drawn) [MIANSERIN], for which the “Bacterial Biotransformation” value is “Compound NOT metabolized”.
On the same count and under the same terms, the entry for `COc1ccc([C@@H]2Sc3ccccc3N(CCN(C)C)C(=O)[C@@H]2OC(C)=O)cc1` [DILTIAZEM] is “Compound NOT metabolized”.
